Results: patent publication US20210275488A1, “NOVEL COMPOUND ISOLATED FROM CERVI PARVUM CORNU, AND PHARMACEUTICAL USES THEREOF” (FNG RESEARCH CO., LTD., priority 2018, published 2021)

Experiments:
IL-6 = assay: Inhibition of IL-6 production in LPS-induced mouse peritoneal macrophages (ELISA); type: cell-based; settings: LPS (1 μg/ml), 12 hours
Protocol: (§1) As experimental animals, 8-week-old C57BL/6 mice were bred for 7 days under the environment of a temperature of 22±2° C., a relative humidity of 65±5% and a 12-hour cycle in light and dark, and then adapted to the laboratory environment, and then used for the experiment. Solid feed (Samyang feed) and water were sufficiently supplied.
(§2) HBSS was intraperitoneally injected into a mouse to extract macrophages, which was centrifuged at 3,000 rpm for 5 minutes, and then 100 units/mL of penicillin/streptomycin was added to DMEM medium with 10% fetal bovine serum (FBS), and peritoneal macrophage was isolated. It was incubated in a 37° C., 5% CO2 incubator for 24 hours, and then used in the experiment.
(§3) The secretion amount of IL-6, IL-1β and TNF-α secreted from mouse peritoneal macrophages induced by lipopolysaccharide (LPS), which is an inflammatory response inducer, was measured by an ELISA assay (Millipore, USA) to thereby evaluate the anti-inflammatory activity.
(§4) In order to obtain a cell culture solution, mouse peritoneal macrophages were adjusted to 3×10^5 cells/mL, inoculated into a 96-well plate, cultured for 24 hours, and then the compounds of Example 1 (PCA glycerol), Example 2 (CPA glycerol) and Comparative Example (PLA glycerol) were treated at different concentrations (10 μg/ml, 100 μg/ml, and 200 μg/ml, respectively), and LPS (1 μg/ml) was treated. The normal group was untreated, and the control group was treated with only LPS (1 μg/ml) on peritoneal macrophages. After culturing for 12 hours, a supernatant was obtained by centrifugation. ELISA was run in microplates coated with anti-mouse IL-6, IL-1β and TNF-α as the capture antibody. Then, the cells were washed with phosphate buffered saline (PBST) containing 0.05% Tween 20, blocked with 10% FBS, and washed with PBST. The cell culture supernatant was dispensed into the wells, and reacted at room temperature for 2 hours. After the reaction, washing was performed with PBST and dilute biotinylated anti-mouse IL-6, IL-1β and TNF-α detection antibody and streptavidin-horseradish peroxydase conjugate were dispensed and reacted at room temperature for 1 hour. Then, washing was performed again with PBST, and an OPD solution was added, and then the mixture was subjected to dark reaction at room temperature for 30 minutes. After the reaction was terminated with 2N H2504, the absorbance was measured at 450 nm using a microplate reader.

TNF-α = assay: Inhibition of TNF-α production in LPS-induced mouse peritoneal macrophages (ELISA); type: cell-based; settings: LPS (1 μg/ml), 12 hours
Protocol: as §1, §2, §3, §4

NO production = assay: Inhibition of NO production in LPS-treated peritoneal macrophages (Griess reagent); type: cell-based, C57BL/6 mice; settings: 24 hours, LPS control group = 100
Protocol: as §1, §2
The cultured peritoneal macrophages were suspended in DMEM containing 10% FBS, dispensed into a 96-well plate at 5×10^5 cells/well and incubated for 24 hours in a 37° C., 5% CO2 incubator, and replaced with new DMEM medium. Then, the peritoneal macrophages were treated with each of the compounds of Examples 1 and 2 and Comparative Example at different concentrations (10 μg/ml, 100 μg/ml, and 200 μg/ml, respectively), and LPS (1 μg/ml) was treated. Then, the cells were incubated for 24 hours. After incubation, the supernatant was separated, centrifuged at 3000 rpm for 5 minutes, and the separated supernatant was dispensed onto a new microplate. The normal group was untreated, and the control group was treated with only LPS (1 μg/ml) on the peritoneal macrophages.
The same amount of Griess reagent (1% sulfanilamide, 0.1% naphthyl-ethylenediamine dihydrochloride, 2% phosphoric acid) was treated, and reacted at room temperature for 10 minutes. After the culture solution was reacted with the Griess solution for […], the absorbance (OD) was measured at 540 nm.

[1] = tested on: neutropenia induced by an anticancer agent (tamoxifen); assay: Mouse experiment of antineoplastic chemotherapy-induced neutropenia (tamoxifen); type: in vivo, C57BL/6 mice; settings: for Number of neutrophils: Tamoxifen (50 mg/kg) i.p. daily 3 weeks, compound 50 mg/kg oral daily 3 weeks, neutrophils in 1 μl of blood; for decrease in the number of neutrophils: tamoxifen 50 mg/kg plus compound 50 mg/kg oral
Protocol: 50 mg/kg of Tamoxifen, used as an anticancer agent, was intraperitoneally injected into C57BL/6 mice every day for 3 weeks and used as a control group, and 50 mg/kg of the compounds of Example 1, Example 2, and Comparative Example 1 were orally administered for 3 weeks every day, and after 3 weeks, the number of neutrophils in 1 μl of blood was measured using an automatic blood sample analyzer (Auto Hematology Analyzer BC-5900, Mindray), and the results are shown in Table 8 and FIG. 12 below.

IL-1β = assay: Inhibition of IL-1β production in LPS-induced mouse peritoneal macrophages (ELISA); type: cell-based; settings: LPS (1 μg/ml), 12 hours
Protocol: as §1, §2, §3, §4

[2] = tested on: neutropenia induced by an anticancer agent (gemcitabine); assay: Mouse experiment of antineoplastic chemotherapy-induced neutropenia (gemcitabine); type: in vivo, C57BL/6 mice; settings: for Number of neutrophils: Gemcitabine (50 mg/kg) i.p. daily 3 weeks, compound 50 mg/kg oral daily 3 weeks, neutrophils in 1 μl of blood; for reduction in the number of neutrophils: 3 weeks, relative to normal group
Protocol: 50 mg/kg of gemcitabine, used as an anticancer agent, was injected intraperitoneally into C57BL/6 mice every day for 3 weeks and used as a control group. 50 mg/kg of the compounds of Example 1, Example 2, and Comparative Example 1 were orally administered for 3 weeks every day, and after 3 weeks, the number of neutrophils in 1 μl of blood was measured using an automatic blood sample analyzer (Auto Hematology Analyzer BC-5900, Mindray), and the results are shown in Table 7 and FIG. 11 below.

peritoneal macrophages = assay: Evaluation of cytotoxicity using MTT assay; type: cell-based, C57BL/6 mice; settings: 24 hours
Protocol: as §1, §2
100 uL of the cultured peritoneal macrophages were dispensed into a 96-well plate at 3×10^5 cells/well and cultured overnight. After removing the medium, the peritoneal macrophage was treated with the compounds of Example 1 (PCA glycerol) and Example 2 (CPA glycerol) at different concentrations (10 μg/ml, 100 μg/ml, and 200 μg/ml, respectively), and then incubated for 24 hours in a 37° C., 5% CO2 incubator. After incubation, the medium was removed, 40 uL of MTT (5 mg/mL) reagent was dispensed and incubated for 4 hours in a CO2 incubator, the MTT reagent was removed, and 600 uL of DMSO reagent was dispensed, and then left at room temperature for 30 minutes. Then, the absorbance (OD) was measured at 540 nm with a microplate reader.

[3] = 3 weeks, relative to normal group
[4] = gemcitabine 50 mg/kg plus compound 50 mg/kg oral

Row | Compound | IL-6 production amount (IL-6; compound 10 μg/ml) [pg/mL] | IL-6 production amount (IL-6; compound 100 μg/ml) [pg/mL] | IL-6 production amount (IL-6; compound 200 μg/ml) [pg/mL] | TNF-α production amount (TNF-α; compound 10 μg/ml) [pg/mL] | TNF-α production amount (TNF-α; compound 100 μg/ml) [pg/mL] | TNF-α production amount (TNF-α; compound 200 μg/ml) [pg/mL] | NO production rate (%) (NO production; compound 10 μg/ml) | NO production rate (%) (NO production; compound 100 μg/ml) | NO production rate (%) (NO production; compound 200 μg/ml) | Number of neutrophils [1] [µL⁻¹] | decrease in the number of neutrophils [1, 3] | IL-1β Production amount (IL-1β; compound 10 μg/ml) [pg/mL] | IL-1β Production amount (IL-1β; compound 100 μg/ml) [pg/mL] | IL-1β Production amount (IL-1β; compound 200 μg/ml) [pg/mL] | Number of neutrophils [2] [µL⁻¹] | reduction in the number of neutrophils [2, 4] | Cell viability (%) (peritoneal macrophages; 10 μg/ml) | Cell viability (%) (peritoneal macrophages; 100 μg/ml) | Cell viability (%) (peritoneal macrophages; 200 μg/ml) | other results
1 | CCCCC/C=C\C/C=C\CCCCCCCC(=O)OC(COC(C)=O)COC(=O)CCCCCCCCCCCCCCC (centres unmarked) [Comparative Example, 1-Palmitoyl-2-Linoleoyl-3-Acetyl Glycerol, reference compound] | 364 ± 16 | 251 ± 24 | 203 ± 25 | 184 ± 21 | 155 ± 12 | 137 ± 7 | 56 ± 3 | 45 ± 2 | 41 ± 3 | 1066 ± 88 | 12.9% | 43 ± 2.2 | 31 ± 2.4 | 31 ± 3.1 | 1047 ± 42 | 14.5% |  |  |  | 
2 | 1-Conjugated-Linoeoyl-2-Palmitoyl-3-Acetyl Glycerol [Example 2] | 325 ± 13 | 234 ± 20 | 179 ± 17 | 175 ± 7 | 151 ± 10 | 123 ± 7 | 50 ± 2 | 44 ± 3 | 34 ± 1 | 1124 ± 57 | about 8.2% | 40 ± 1.7 | 32 ± 2.4 | 28 ± 1.7 | 1142 ± 62 | 6.7% | 100 ± 0.9 | 98.3 ± 1.7 | 98.0 ± 2.8 | 
3 | Nc1ccn([C@@H]2O[C@H](CO)[C@@H](O)C2(F)F)c(=O)n1 [gemcitabine, reference compound] |  |  |  |  |  |  |  |  |  |  |  |  |  |  |  |  |  |  |  | reduction in the number of neutrophils ([2]; mice treated with gemcitabine 50 mg/kg i.p. alone (control group)): about 45%
4 | 1-Palmitoyl-2-Conjugated-Linoleoyl-3-Acetyl Glycerol [Example 1] | 321 ± 22 | 225 ± 23 | 180 ± 25 | 170 ± 8 | 153 ± 11 | 121 ± 10 | 52 ± 3 | 43 ± 3 | 37 ± 4 | 1146 ± 63 | about 6.3% | 40 ± 2.9 | 28 ± 2.3 | 26 ± 2.8 | 1198 ± 43 | about 2% | 100 ± 2.1 | 98.3 ± 1.9 | 98.1 ± 1.2 | 
5 | CC/C(=C(\c1ccccc1)c1ccc(OCCN(C)C)cc1)c1ccccc1 [tamoxifen, Tamoxifen, reference compound] |  |  |  |  |  |  |  |  |  |  |  |  |  |  |  |  |  |  |  | decrease in number of neutrophils ([1]; mice treated with tamoxifen 50 mg/kg i.p. alone (control group), 3 weeks, relative to normal group): about 37%
